# Measured values published in paper PMC10112521, “High-throughput AR dimerization assay identifies androgen disrupting chemicals and metabolites” (Frontiers in Toxicology, 2023).
# Like-named read-outs stand apart in the source and are kept apart here.
# Assays:
# human AR [1] = molecular target: T1, human AR (Homo sapiens, UniProt P10275); assay: AR2 assay, agonist mode: ligand-dependent AR homodimerization (NanoBiT luciferase complementation) in stable HepG2-AR2 cells; assay type: cell-based; conditions: for hill_tp: Hill model top (efficacy); for max_med: maximum median response; for win_model: winning concentration-response model (Constant, Hill, Gain-Loss); for AR2 agonist: activity call, agonist mode;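 as to hill tp: Log2 fold change of luminescence over DMSO vehicle wells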;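 as to max med: Log2 fold change of luminescence over DMSO vehicle wells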
# T1 sequence (P10275 1-920) 1: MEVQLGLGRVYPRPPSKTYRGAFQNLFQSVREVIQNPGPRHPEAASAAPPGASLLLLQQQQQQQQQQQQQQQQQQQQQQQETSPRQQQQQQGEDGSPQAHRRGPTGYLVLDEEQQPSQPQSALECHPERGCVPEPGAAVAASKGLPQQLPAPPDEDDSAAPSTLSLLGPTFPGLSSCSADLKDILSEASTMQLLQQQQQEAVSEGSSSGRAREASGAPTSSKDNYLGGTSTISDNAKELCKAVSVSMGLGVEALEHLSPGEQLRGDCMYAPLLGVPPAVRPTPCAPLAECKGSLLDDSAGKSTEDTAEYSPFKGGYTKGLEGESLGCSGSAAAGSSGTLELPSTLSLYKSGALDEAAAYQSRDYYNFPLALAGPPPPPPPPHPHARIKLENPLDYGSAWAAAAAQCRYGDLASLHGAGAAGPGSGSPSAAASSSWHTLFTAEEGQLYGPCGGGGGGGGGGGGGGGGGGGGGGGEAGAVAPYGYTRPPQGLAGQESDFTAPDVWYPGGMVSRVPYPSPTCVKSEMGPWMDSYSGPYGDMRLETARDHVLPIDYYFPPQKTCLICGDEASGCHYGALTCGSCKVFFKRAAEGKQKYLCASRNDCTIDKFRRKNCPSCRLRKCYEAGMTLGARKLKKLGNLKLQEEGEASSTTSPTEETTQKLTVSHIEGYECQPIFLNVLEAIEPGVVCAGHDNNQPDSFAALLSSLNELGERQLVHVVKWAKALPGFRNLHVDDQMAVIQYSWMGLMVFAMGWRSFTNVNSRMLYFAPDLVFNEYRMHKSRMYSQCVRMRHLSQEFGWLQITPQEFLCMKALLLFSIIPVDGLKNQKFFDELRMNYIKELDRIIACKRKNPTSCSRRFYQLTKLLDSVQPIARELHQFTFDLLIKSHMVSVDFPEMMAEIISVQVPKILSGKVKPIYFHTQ
# T1 sequence (P10275 1-920) 2: T1 sequence (P10275 1-920) 1
# human AR [2] = molecular target: T1, human AR; assay: AR2 assay, antagonist mode: disruption of R1881 (10 nM)-induced AR homodimerization in HepG2-AR2 cells; assay type: cell-based; conditions: for AR2 antagonist: activity call, antagonist mode, 18 h
# [3] = tested on: full-length human AR and the receptor interacting domain (RID) of SRC1; set-up: method as in U.S. EPA, 2002b; conditions: activity call, single protocol detects agonists and antagonists, invitroDBv3.4 ref U.S. EPA, 2002b, cited from earlier work
# [4] = tested on: human AR (LBD and AF2 domains) and the RID of human SRC2; set-up: method as in U.S. EPA, 2002b; conditions: activity call, antagonist mode, 2 h; invitroDBv3.4 ref U.S. EPA, 2002b; cited from earlier work
# AR = tested on: AR; set-up: method as in Kleinstreuer et al., 2017; conditions: 2017, cited from earlier work; for Antagonist reference: AR antagonist reference class ref Kleinstreuer et al.; for Agonist reference: AR agonist reference class ref Kleinstreuer et al.
# human AR [5] = molecular target: T1, human AR; assay: cell-based; set-up: species or system AR2 cells (HepG2-AR2); NanoLuc complementation AR homodimerization, antagonist mode, loss of agonist-induced luminescence, AC50 by Hill fit; conditions: hill_ga, antagonist mode, 10 nM agonist stimulus, 18 h, no CYP expressed
# human AR [6] = molecular target: T1, human AR; assay: cell-based; set-up: species or system AR2 cells (HepG2-AR2); NanoLuc complementation AR homodimerization, agonist mode, luminescence gain, AC50 by Hill fit; conditions: hill_ga, spid=Bgal; agonist mode, 18 h, no CYP expressed
# AR2 cells (HepG2-AR2) [7] = assay: Alamar Blue (resazurin) post hoc cell viability / cytotoxicity assay in AR2 cells; conditions: spid Viability, sheet antagonist_fits; for hill_tp (Hill model top): 0 where win_model is Constant
# Method: (§1) For antagonist mode and cytotoxicity data, well-level normalized response (resp) was calculated as: resp=100 * RLU−bval/pval−bval where pval is the median RLU value of the MEC positive control wells (minimum four wells).
# AR2 cells (HepG2-AR2) [8] = tested on: AR2 cells (HepG2-AR2)
# Method: as §1
# [9] = tested on: human AR (LBD and AF2 domains) and the RID of human SRC2; set-up: method as in U.S. EPA, 2002b; conditions: activity call, agonist mode, 2 h; invitroDBv3.4 ref U.S. EPA, 2002b; cited from earlier work
# [10] = sheet agonist_fits, 0 given where win_model is Constant
# [11] = spid AR_antagonist, sheet antagonist_fits
# [12] = spid AR_antagonist, sheet antagonist_fits, 0 where win_model is Constant
# [13] = spid AR_antagonist, sheet antagonist_fits, Hill fit parameter
SMILES,hill_tp (human AR [1]; [10]),max_med (human AR [1]; sheet agonist_fits),win_model (human AR [1]; sheet agonist_fits),AR2 antagonist (human AR [2]),win_model (winning concentration-response model) (human AR [2]; [11]),hill_gw (Hill model slope) (human AR [2]; [12]),OT 8 hr [3],OT 16 hr [3],UPitt antagonist [4],Antagonist reference (AR),Antagonist reference (AR; Supplementary Table S1),AC50 (human AR [5]; spid=Bgal) [µM],AC50 (human AR [5]; spid=No_RNA) [µM],max_med (maximum median response) (AR2 cells (HepG2-AR2) [7]),hill_tp (Hill model top) (AR2 cells (HepG2-AR2) [7]),hill_tp (Hill model top) (human AR [2]),max_med (maximum median response) (human AR [2]),AR2 agonist (human AR [1]; 18 h),hill_ga (Hill model log AC50) (AR2 cells (HepG2-AR2) [8]),UPitt agonist [9],further results
CC(C)(c1ccc(O)cc1)c1ccc(O)cc1 [Bisphenol A],0.2654,0.1199,Gain-Loss,1,Hill,1.098,0,1,1,Moderate,Moderate,13.1,15.9,20.3748,26.326,,,,,,"activity call in agonist mode (human AR [1]; 128-chemical evaluation, 18 h, active = maximal median response >5*bmad): tested negative; hill_gw (human AR [1]; sheet agonist_fits, Hill model gain slope (Hill coefficient), 0 given where win_model is Constant): 0.5365; max_med (maximum median response) (human AR [2]; [11]): 101.007; hill_tp (Hill model top) (human AR [2]; [12]): 118.275; AC50 (human AR [6]): > 99.9 µM"
CCCC1COC(Cn2cncn2)(c2ccc(Cl)cc2Cl)O1 (stereo not drawn) [Propiconazole],0,0.05395,Constant,1,Hill,1.532,1,1,1,Weak,Weak,33.8,32.2,5.206,0,116.132,96.3637,,,,
CCCCNC(=O)n1c(NC(=O)OC)nc2ccccc21 [Benomyl],0,0.04446,Constant,,Hill,3.063,0,1,,,,,,28.9418,26.9649,30.7847,31.5571,0,0.6267,0,Agonist reference (AR): Inactive
CC#C[C@]1(O)CC[C@H]2[C@@H]3CCC4=CC(=O)CCC4=C3[C@@H](c3ccc(N(C)C)cc3)C[C@@]21C [Mifepristone],,,,,,,1,1,1,Strong,Strong,,,9.555,0,,,,,,
CC1(C)C(C=C(Cl)Cl)C1C(=O)OCc1cccc(Oc2ccccc2)c1 (stereo not drawn) [Permethrin],0,0.006626,Constant,,Hill,1.786,0,0,,,,27.5,47.3,5.481,0,63.3496,53.132,0,0,0,Agonist reference (AR): Inactive
CC(O)(CS(=O)(=O)c1ccc(F)cc1)C(=O)Nc1ccc(C#N)c(C(F)(F)F)c1 (stereo not drawn) [Bicalutamide],,,,,,,1,1,1,Strong,Strong,,,19.8696,21.5759,,,,,,hill_tp (Hill model top) (AR2 cells (HepG2-AR2) [7]; listed as BICAL): 57.2356; max_med (maximum median response) (AR2 cells (HepG2-AR2) [7]; listed as BICAL): 25.4903
C[C@H]1CCCC(=O)CCC/C=C/c2cc(O)cc(O)c2C(=O)O1 [Zearalenone],0,0.2969,Constant,1,,,0,0,1,Weak,Weak,9.73,7.46,41.4682,,,,,,,"max_med (maximum median response) (human AR [2]; [11]): 103.904; win_model (winning curve-fit model) (human AR [2]; spid AR_antagonist, sheet antagonist_fits, Constant = no concentration response): Hill; hill_gw (Hill model slope/Hill coefficient) (human AR [2]; [13]): 2.042; hill_tp (Hill model top of curve) (human AR [2]; [13]): 105.112; hill_tp (Hill model top of curve) (AR2 cells (HepG2-AR2) [7]; Hill fit parameter): 49.8014"
COC(=O)Nc1nc2ccccc2[nH]1 [Carbendazim],0,0.02367,Constant,,Hill,8,0,1,,,,,,17.1488,11.742,18.0536,16.7598,0,1.227,0,Agonist reference (AR): Inactive
